In US8481546B2, “CGRP receptor antagonist” (Bristol-Myers Squibb Company, priority 2010, dated 2013):
Read-outs that look alike come from different tables or passages of the source.

How the values were obtained:
[1] = system: olfactory epithelium (nasal tissues); experiment: One-week comparative intranasal irritation study in rats (Compound I vs Compound III): nasal histology and tolerability; assay type: in vivo; details: 1 week
Experimental: This study was conducted to compare potential nasal irritation of Compound I to Compound III when given intranasally to male rats for 1 week. Male rats (10/group) were instilled intranasally with Compound I or Compound III solutions ([…] in 225 mM succinic acid, 0.02% benzalkonium chloride, 1.25% anhydrous dextrose, pH 5.8-6.2) once daily at a dose volume of 100 μL/nostril. Using this dosing paradigm, fixed doses of 5, 15 or 35 mg of test article were delivered daily. As a consequence, dosages normalized to body weight decreased with time as the rats grew. One control group was given succinate vehicle and a sham control group was given saline by intranasal instillation. Parameters evaluated included clinical observations, body weight, food consumption, toxicokinetics, and histological evaluation of nasal tissues.

[2] = system: olfactory epithelium (nasal turbinates); assay type: in vivo, rats
From the text: Compound I and Compound II were also compared directly for intranasal irritation. […] The only endpoint evaluated in this study was histological evaluation of the nasal turbinates.

[3] = nasal instillation 5 mg (0.357 mg/cm^2) once daily
[4] = nasal instillation 15 mg (1.07 mg/cm^2) once daily
[5] = nasal instillation 35 mg (2.50 mg/cm^2) once daily
[6] = 12.5 μL/nostril, 75 mg/ml, 1.875 mg/rat/day (0.134 mg/cm^2)
[7] = 12.5 μL/nostril, 175 mg/ml, 4.375 mg/rat/day (0.313 mg/cm^2)
[8] = 25 μL/nostril, 75 mg/ml, 3.75 mg/rat/day (0.268 mg/cm^2)
[9] = 25 μL/nostril, 175 mg/ml, 8.75 mg/rat/day (0.625 mg/cm^2)
[10] = 100 μL/nostril, 75 mg/ml, 15 mg/rat/day (1.071 mg/cm^2)
[11] = 100 μL/nostril, 175 mg/ml, 35 mg/rat/day (2.500 mg/cm^2)

Cc1cc(C[C@@H](NC(=O)N2CCC(c3cc4ccccc4[nH]c3=O)CC2)C(=O)N2CCC(N3CCCCC3)CC2)cc2cn[nH]c12 [Compound III, reference compound]
Olfactory Epithelial Atrophy, incidence of severity Marked (number of rats) [1, 3]: 0 | Olfactory Epithelial Atrophy, incidence of severity Mild (number of rats) [1, 3]: 2 | Olfactory Epithelial Atrophy, incidence of severity Minimal (number of rats) [1, 3]: 6 | Olfactory Epithelial Atrophy, incidence of severity Moderate (number of rats) [1, 3]: 0 | Olfactory Epithelial Atrophy, incidence of severity None (number of rats) [1, 3]: 1 | Olfactory Epithelial Atrophy, incidence of severity Marked (number of rats) [1, 4]: 0 | Olfactory Epithelial Atrophy, incidence of severity Mild (number of rats) [1, 4]: 2 | Olfactory Epithelial Atrophy, incidence of severity Minimal (number of rats) [1, 4]: 0 | Olfactory Epithelial Atrophy, incidence of severity Moderate (number of rats) [1, 4]: 6 | Olfactory Epithelial Atrophy, incidence of severity None (number of rats) [1, 4]: 1 | Olfactory Epithelial Atrophy, incidence of severity Marked (number of rats) [1, 5]: 1 | Olfactory Epithelial Atrophy, incidence of severity Mild (number of rats) [1, 5]: 2 | Olfactory Epithelial Atrophy, incidence of severity Minimal (number of rats) [1, 5]: 0 | Olfactory Epithelial Atrophy, incidence of severity Moderate (number of rats) [1, 5]: 3 | Olfactory Epithelial Atrophy, incidence of severity None (number of rats) [1, 5]: 3

Cc1cc(C[C@@H](NC(=O)N2CCC(C3Cc4cccc(F)c4NC3=O)CC2)C(=O)N2CCC(N3CCCCC3)CC2)cc2cn[nH]c12 (stereo partly shown) [Compound II]
Olfactory epithelial toxicity, number of animals with severity Mild [2, 6]: 1 | Olfactory epithelial toxicity, number of animals with severity None [2, 6]: 3 | Olfactory epithelial toxicity, number of animals with severity Slight [2, 6]: 1 | Olfactory epithelial toxicity, number of animals with severity Mild [2, 7]: 1 | Olfactory epithelial toxicity, number of animals with severity Minimal [2, 7]: 1 | Olfactory epithelial toxicity, number of animals with severity None [2, 7]: 3 | Olfactory epithelial toxicity, number of animals with severity Minimal [2, 8]: 2 | Olfactory epithelial toxicity, number of animals with severity None [2, 8]: 2 | Olfactory epithelial toxicity, number of animals with severity Slight [2, 8]: 1 | Olfactory epithelial toxicity, number of animals with severity Minimal [2, 9]: 3 | Olfactory epithelial toxicity, number of animals with severity None [2, 9]: 1 | Olfactory epithelial toxicity, number of animals with severity Slight [2, 9]: 1 | Olfactory epithelial toxicity, number of animals with severity Mild [2, 10]: 1 | Olfactory epithelial toxicity, number of animals with severity Slight [2, 10]: 4 | Olfactory epithelial toxicity, number of animals with severity Mild [2, 11]: 2 | Olfactory epithelial toxicity, number of animals with severity Moderate [2, 11]: 3
